Test results reported in patent publication EP4545547B1, “INSECT NEUROPEPTIDES” (Solasta Bio Limited, priority 2023, dated 2025).
Where a SMILES comes first, the peptide text is derived from it.

Tests used:
[1] = system: Plutella xylostella; assay: Leaf dip assay 2 (based on IRAC susceptibility test method 019); type: in vivo; settings: unformulated peptide at 1x10^-4 M; leaf disc on 1% agar; after 96 hours; Figure 6
Experimental: The assay was carried out based on IRAC susceptibility test method 019 (https://irac-online.org/methods/aphids-adultnymphs/). Fill a small 4 cm wide 3 cm high dish with a 1% agar treatment solution of the active chemical or control (ensuring 1 cm gap between the agar and the lid) and leave to set. Dip a 2.5 cm leaf disc into 3 ml of treatment solution allowing the treatment to coat the leaf. Leave the disc to dry for 1 hour and place onto the set agar. Place insects (Plutella xylostella) onto each of the leaf discs. Each unit is sealed with a close-fitting, ventilated lid. Place the agar dishes in a small plastic tray lined with moist tissue paper and ensure the water trays in the bottom of the incubator are filled with clean water and place within the incubator. An assessment of mortality is made at 72, 96 and 120 hours. Leaf dip assays were performed with SB-P-81, and compared to a negative control vehicle and a current commercial insecticide Chlorantraniliprole. The activity of SB-P-81 is shown in Figure 6; SB-P-81 has good activity whilst being eco-friendly and targeted to specific pests unlike broad spectrum chemical insecticides such as Chlorantraniliprole.

[2] = system: Plutella xylostella; assay: Leaf dip assay 1 (based on IRAC susceptibility test method 018, performed by FERA); type: in vivo; settings: unformulated peptide at 2x10^-4 M; Chinese cabbage leaf discs dipped 10 seconds; larvae (2nd/3rd instar); mortality assessed after 120 hours; Figure 4
Experimental: The assay was carried out based on IRAC susceptibility test method 018 by a contract research organization, FERA Science Ltd. Test insects Larvae (2nd/3rd instar) were sourced from a laboratory culture of P. xylostella. The culture has been maintained in a controlled environment (CE) room with conditions of 25 °C and 16:8 lighting regime on Chinese cabbage plants. Chinese cabbage leaves were used in the bioassays. A CE room set at 25 °C and 60% r.h. with a 16 hour light: 8 hours dark lighting regime, was used. Leaf discs (approximately 35mm in diameter) were cut from fully expanded Chinese cabbage leaves. Each leaf disc was dipped in a separate peptide solution for 10 seconds with gentle agitation and placed on a damp filter paper (underside surface uppermost). There were ten replicates for each treatment and control, with five leaf discs per replicate. The treated discs were then put onto damp filter paper in the base of a Petri dishes (90 mm in diameter, 15 mm high) (underside surface uppermost). Five larvae were then transferred onto the treated leaf discs. The dishes were placed in the CE room and mortality was assessed after 120 hours. Leaf dip assays were performed with SB-P-81, and compared to a negative control vehicle and a current commercial insecticide Gazelle SG (shown as the active Acetamiprid). […]

CSCC[C@H](NC(=O)[C@H](CO)NC(=O)CNC(=O)CN)C(=O)N[C@H](C(=O)N[C@@H](Cc1ccccc1)C(=O)N[C@@H](CO)C(=O)N1CCC[C@H]1C(=O)N[C@@H](CCCNC(=N)N)C(=O)N[C@@H](CC(C)C)C(N)=O)[C@@H](C)O [SB-P-81, [Hy]-GGSMTFSPRL-[NH2]] (H-GGSMTFSPRL-NH2)
activity against Plutella xylostella (mortality) [1]: good activity
activity against Plutella xylostella (mortality) [2]: good activity
